Source: publication PMC3700763, “First human dose-escalation study with remogliflozin etabonate, a selective inhibitor of the sodium-glucose transporter 2 (SGLT2), in healthy subjects and in subjects with type 2 diabetes mellitus” (BMC Pharmacology & Toxicology, 2013)
Marks after values point to notes of the source that are not given here.

Legend:
[1] = Plasma pharmacokinetics, healthy subjects; assay type: in vivo, human; details: for Tmax / half-life / AUC(0-inf) / Cmax: human; for AUC(0-inf): read-out: AUC(0-∞) Geometric mean (CV%); for Cmax: read-out: Cmax Geometric mean (CV%); for AUC ratio (remogliflozin/remogliflozin etabonate) Geometric mean: molecular weight corrected
Description: Ten healthy subjects were evaluated in 5 study sessions, each separated by approximately 2 weeks. At each study session, subjects received either an oral dose of remogliflozin etabonate or placebo after an overnight fast. Remogliflozin etabonate doses were 20 mg, 50 mg, 150 mg, 500 mg and 1000 mg. Over the course of participation in the study, each subject received 4 of the 5 active remogliflozin etabonate doses and 1 dose of placebo (4:1 active to placebo ratio per treatment period). The available safety and PK results from each dosing period were evaluated before proceeding to the next dose level. On each dosing day, a series of 2.0 mL blood samples were collected at pre-dose and 10, 20, 30 and 45 min, and 1, 1.25, 1.5, 2, 2.5, 3, 4, 6, 8, 12, 16, and 24 h post-dose for the determination of remogliflozin etabonate, remogliflozin and GSK279782 in plasma by using high-performance liquid chromatography with tandem mass spectrometry (MS/MS) as described. Non-compartmental PK analysis of plasma concentration–time data was performed using WinNonlin Version 4.1 (Pharsight Corporation, Mountainview, CA, USA). The Cmax and Tmax were obtained directly from the data. Areas under the plasma concentration–time curves from time zero to the last quantifiable time point (AUC[0–last]) and extrapolated to infinity (AUC[0–∞]) were calculated using the log-linear trapezoidal method. The terminal plasma elimination rate-constant (λz) was estimated from log-linear regression analysis of the terminal phase of the plasma concentration–time curve, and the T½ was calculated as T½ = ln2/λz. Ratios of AUC(0–∞) remogliflozin to AUC(0–last) remogliflozin etabonate were calculated including molecular weight corrections. Safety and pharmacodynamic data were summarized using descriptive statistics. This was a small exploratory study and no formal hypothesis-testing was conducted. Dose proportionality with respect to Cmax, and AUC was assessed using the power model y = α dose^β, where y = Cmax or AUC, and α denotes a random subject effect. The exponent β in the power model will be estimated by regressing the loge-transformed PK parameters on loge dose, i.e. ln(PK parameter) = ln(α) + β * ln(dose). Dose proportionality implied that β = 1 and was assessed by estimating β and its corresponding 90% confidence interval. The power model was fitted by restricted maximum likelihood using SAS Proc Mixed.

[2] = Plasma pharmacokinetics, T2DM subjects; assay type: in vivo, human; details: for AUC(0-inf) / Cmax / Tmax / half-life: human, plasma analyte; for AUC(0-inf): read-out: AUC(0–∞) Geometric mean (CV%); for Cmax: read-out: Cmax Geometric mean (CV%); for Tmax: read-out: Tmax Median; for half-life: read-out: T½ Geometric mean (CV%) (converted)
Description: Six subjects with T2DM received two doses of remogliflozin etabonate and a placebo dose, in a randomized, dose escalating, crossover design, along with an oral glucose load on three study sessions separated by 7–14 days. Full PK and safety profiles were measured on Day 1 of each dosing period. The doses selected for this portion of the study, 50 mg and 500 mg, were based on data obtained in Part A. In each dosing period, subjects were assigned to active vs placebo in a 2:1 ratio. On each dosing day, a series of 2.0 mL blood samples were collected at pre-dose and 10, 20, 30 and 45 min, and 1, 1.25, 1.5, 2, 2.5, 3, 4, 6, 8, 12, 16, and 24 h post-dose for the determination of remogliflozin etabonate, remogliflozin and GSK279782 in plasma by using high-performance liquid chromatography with tandem mass spectrometry (MS/MS) as described. Non-compartmental PK analysis of plasma concentration–time data was performed using WinNonlin Version 4.1 (Pharsight Corporation, Mountainview, CA, USA). The Cmax and Tmax were obtained directly from the data. Areas under the plasma concentration–time curves from time zero to the last quantifiable time point (AUC[0–last]) and extrapolated to infinity (AUC[0–∞]) were calculated using the log-linear trapezoidal method. The terminal plasma elimination rate-constant (λz) was estimated from log-linear regression analysis of the terminal phase of the plasma concentration–time curve, and the T½ was calculated as T½ = ln2/λz. Ratios of AUC(0–∞) remogliflozin to AUC(0–last) remogliflozin etabonate were calculated including molecular weight corrections.

SGLT-2 = system: SGLT-2; design: method as in PMID 22851617; details: relative to remogliflozin; cited from earlier work
SGLT2 over SGLT1 = system: SGLT2 over SGLT1; design: method as in PMID 12139397; details: cited from earlier work
[3] = plasma, po, 20 mg, plasma analyte, healthy subjects, remogliflozin etabonate 20 mg oral dose, read-out: T½ Geometric mean (CV%) (converted)
[4] = plasma, po, 50 mg, plasma analyte, healthy subjects, remogliflozin etabonate 50 mg oral dose, read-out: T½ Geometric mean (CV%) (converted)
[5] = plasma, po, 150 mg, plasma analyte, healthy subjects, remogliflozin etabonate 150 mg oral dose, read-out: T½ Geometric mean (CV%) (converted)
[6] = plasma, po, 500 mg, plasma analyte, healthy subjects, remogliflozin etabonate 500 mg oral dose, read-out: T½ Geometric mean (CV%) (converted)
[7] = plasma, po, 1000 mg, plasma analyte, healthy subjects, remogliflozin etabonate 1000 mg oral dose, read-out: T½ Geometric mean (CV%) (converted)
[8] = plasma analyte, healthy subjects, remogliflozin etabonate 20 mg oral dose
[9] = plasma analyte, healthy subjects, remogliflozin etabonate 20 mg oral dose, read-out: Tmax Median
[10] = plasma analyte, healthy subjects, remogliflozin etabonate 50 mg oral dose
[11] = plasma analyte, healthy subjects, remogliflozin etabonate 50 mg oral dose, read-out: Tmax Median
[12] = plasma analyte, healthy subjects, remogliflozin etabonate 150 mg oral dose
[13] = plasma analyte, healthy subjects, remogliflozin etabonate 150 mg oral dose, read-out: Tmax Median
[14] = plasma analyte, healthy subjects, remogliflozin etabonate 500 mg oral dose
[15] = plasma analyte, healthy subjects, remogliflozin etabonate 500 mg oral dose, read-out: Tmax Median
[16] = plasma analyte, healthy subjects, remogliflozin etabonate 1000 mg oral dose
[17] = plasma analyte, healthy subjects, remogliflozin etabonate 1000 mg oral dose, read-out: Tmax Median
[18] = remogliflozin etabonate 50 mg oral dose
[19] = remogliflozin etabonate 500 mg oral dose (prodrug n = 2)
[20] = remogliflozin etabonate 500 mg oral dose

| SMILES | half-life [1, 3] [h] | half-life [1, 4] [h] | half-life [1, 5] [h] | half-life [1, 6] [h] | half-life [1, 7] [h] | AUC(0-inf) [1, 8] [ng·h/mL] | Cmax [1, 8] [ng/mL] | Tmax [1, 9] [h] | AUC(0-inf) [1, 10] [ng·h/mL] | Cmax [1, 10] [ng/mL] | Tmax [1, 11] [h] | AUC(0-inf) [1, 12] [ng·h/mL] | Cmax [1, 12] [ng/mL] | Tmax [1, 13] [h] | AUC(0-inf) [1, 14] [ng·h/mL] | Cmax [1, 14] [ng/mL] | Tmax [1, 15] [h] | AUC(0-inf) [1, 16] [ng·h/mL] | Cmax [1, 16] [ng/mL] | Tmax [1, 17] [h] | also measured |
| --- | --- | --- | --- | --- | --- | --- | --- | --- | --- | --- | --- | --- | --- | --- | --- | --- | --- | --- | --- | --- | --- |
| Cc1[nH]nc(O[C@@H]2O[C@H](CO)[C@@H](O)[C@H](O)[C@H]2O)c1Cc1ccc(OC(C)C)cc1 [GSK279782] | 1.54 | 2.19 | 2.28 | 3.07 | 3.5 | 51.8 | 17.5 | 1.26 | 145 | 50.2 | 1.38 | 447 | 155 | 1 | 1520 | 498 | 1.5 | 4000 | 1290 | 1.25 | Tmax ([1]; plasma, oral, healthy subjects, 20-1000 mg, read-out: median Tmax estimates, range across doses): 1 to 1.5 h; half-life ([1]; plasma, oral, healthy subjects, 20-1000 mg, read-out: median T½ estimates, range across doses): 1.54 to 3.5 h; AUC(0-inf) [2, 18]: 130 ng·h/mL; Cmax [2, 18]: 34.6 ng/mL; Tmax [2, 18]: 1.74 h; half-life [2, 18]: 2.05 h; AUC(0-inf) [2, 19]: 1290 ng·h/mL; half-life [2, 19]: 3.28 h; Cmax [2, 20]: 314 ng/mL; Tmax [2, 20]: 2.75 h; Potency in inhibiting SGLT-2 in vitro (SGLT-2): as potent as remogliflozin |
| Cc1c(Cc2ccc(OC(C)C)cc2)c(O[C@@H]2O[C@H](CO)[C@@H](O)[C@H](O)[C@H]2O)nn1C(C)C [Remogliflozin, remogliflozin] | 1.38 | 1.47 | 1.59 | 2.57 | 2.86 | 133 | 61 | 0.89 | 324 | 158 | 1.14 | 991 | 515 | 0.66 | 3720 | 1700 | 1.5 | 10300 | 4820 | 1.25 | AUC ratio (remogliflozin/remogliflozin etabonate) Geometric mean ([1]; healthy subjects, 20 mg oral dose, n = 5): 84^d; AUC ratio (remogliflozin/remogliflozin etabonate) Geometric mean ([1]; healthy subjects, 50 mg oral dose): 81; AUC ratio (remogliflozin/remogliflozin etabonate) Geometric mean ([1]; healthy subjects, 150 mg oral dose): 102; AUC ratio (remogliflozin/remogliflozin etabonate) Geometric mean ([1]; healthy subjects, 500 mg oral dose): 105; AUC ratio (remogliflozin/remogliflozin etabonate) Geometric mean ([1]; healthy subjects, 1000 mg oral dose): 95; Time to appearance in plasma at relatively high concentrations ([1]; healthy subjects, after remogliflozin etabonate dosing): ≤ 10 min; half-life ([1]; plasma, oral, both populations, independent of dose (abstract), read-out: mean plasma T½): 2 h; half-life ([1]; plasma, oral, healthy subjects, 20-1000 mg, read-out: mean T½ estimates, range across doses): 1.38 to 2.86 h; Tmax ([1]; plasma, both populations, after oral RE (abstract), read-out: time to maximum plasma concentration (Tmax)): ~1 h; AUC(0–∞) ratio (Remogliflozin/remogliflozin etabonate) Geometric mean (CV%) ([2]; 50 mg oral dose): 59 (62); AUC(0–∞) ratio (Remogliflozin/remogliflozin etabonate) Geometric mean (CV%) ([2]; 500 mg oral dose): 54 (38); AUC(0-inf) [2, 18]: 523 ng·h/mL; Cmax [2, 18]: 195 ng/mL; Tmax [2, 18]: 1.46 h; half-life [2, 18]: 1.59 h; AUC(0-inf) [2, 19]: 5180 ng·h/mL; half-life [2, 19]: 3.93 h; Cmax [2, 20]: 1890 ng/mL; Tmax [2, 20]: 2.5 h; Selectivity for SGLT2 over SGLT1 (SGLT2 over SGLT1): high level of selectivity |
